Data taken from US20220306659A1, “COMPOUND INHIBITING AND INDUCING DEGRADATION OF EGFR AND ALK” (BEIJING TIDE PHARMACEUTICAL CO., LTD., priority 2019, published 2022).

What was measured:
EGFR^L858R/T790M/C797S [1] = target: T1, EGFR^L858R/T790M/C797S (Homo sapiens, UniProt P00533, C797S/L858R/T790M); assay: EGFR inhibitory activity assay (TK-substrate-biotin/ATP, 665/615 ratio); assay type: biochemical; details: kinase inhibition
How it was run: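 HTRF kinase assay: enzyme preincubated with compound 10 min at room temperature, then reacted with biotinylated TK substrate and ATP for 40 min at room temperature.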

[2] = target: Ba/F3(EGFR^L858R/T790M/C797S) cells (Homo sapiens, UniProt P00533, T790M/C797S/L858R, cells depend on it); assay: Assay of activity on Ba/F3 cells (CTG, 72 h); assay type: cell-based; details: read-out: IC50 (nM) Ba/F3 (EGFR^L858R/T790M/C797S)
How it was run: (§1)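 Ba/F3 cells dependent on each EGFR triple mutant were exposed to 3-fold compound dilutions for 72 h at 37° C, 5% CO2, with CellTiter-Glo luminescence as the read-out.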

Ba/F3(EML4-ALK) cells = target: T2, Ba/F3(EML4-ALK) cells (Homo sapiens, UniProt Q9UM73); assay: Assay of activity on Ba/F3(EML4-ALK) cells (CTG, 72 h); assay type: cell-based; details: read-out: IC50 (nM) Ba/F3(EML4-ALK)
T2 construct: fused on or other part: Q9HC35 (Echinoderm microtubule-associated protein-like 4)
T2 sequence (Q9UM73 whole entry, change not shown, the tested form may be a part): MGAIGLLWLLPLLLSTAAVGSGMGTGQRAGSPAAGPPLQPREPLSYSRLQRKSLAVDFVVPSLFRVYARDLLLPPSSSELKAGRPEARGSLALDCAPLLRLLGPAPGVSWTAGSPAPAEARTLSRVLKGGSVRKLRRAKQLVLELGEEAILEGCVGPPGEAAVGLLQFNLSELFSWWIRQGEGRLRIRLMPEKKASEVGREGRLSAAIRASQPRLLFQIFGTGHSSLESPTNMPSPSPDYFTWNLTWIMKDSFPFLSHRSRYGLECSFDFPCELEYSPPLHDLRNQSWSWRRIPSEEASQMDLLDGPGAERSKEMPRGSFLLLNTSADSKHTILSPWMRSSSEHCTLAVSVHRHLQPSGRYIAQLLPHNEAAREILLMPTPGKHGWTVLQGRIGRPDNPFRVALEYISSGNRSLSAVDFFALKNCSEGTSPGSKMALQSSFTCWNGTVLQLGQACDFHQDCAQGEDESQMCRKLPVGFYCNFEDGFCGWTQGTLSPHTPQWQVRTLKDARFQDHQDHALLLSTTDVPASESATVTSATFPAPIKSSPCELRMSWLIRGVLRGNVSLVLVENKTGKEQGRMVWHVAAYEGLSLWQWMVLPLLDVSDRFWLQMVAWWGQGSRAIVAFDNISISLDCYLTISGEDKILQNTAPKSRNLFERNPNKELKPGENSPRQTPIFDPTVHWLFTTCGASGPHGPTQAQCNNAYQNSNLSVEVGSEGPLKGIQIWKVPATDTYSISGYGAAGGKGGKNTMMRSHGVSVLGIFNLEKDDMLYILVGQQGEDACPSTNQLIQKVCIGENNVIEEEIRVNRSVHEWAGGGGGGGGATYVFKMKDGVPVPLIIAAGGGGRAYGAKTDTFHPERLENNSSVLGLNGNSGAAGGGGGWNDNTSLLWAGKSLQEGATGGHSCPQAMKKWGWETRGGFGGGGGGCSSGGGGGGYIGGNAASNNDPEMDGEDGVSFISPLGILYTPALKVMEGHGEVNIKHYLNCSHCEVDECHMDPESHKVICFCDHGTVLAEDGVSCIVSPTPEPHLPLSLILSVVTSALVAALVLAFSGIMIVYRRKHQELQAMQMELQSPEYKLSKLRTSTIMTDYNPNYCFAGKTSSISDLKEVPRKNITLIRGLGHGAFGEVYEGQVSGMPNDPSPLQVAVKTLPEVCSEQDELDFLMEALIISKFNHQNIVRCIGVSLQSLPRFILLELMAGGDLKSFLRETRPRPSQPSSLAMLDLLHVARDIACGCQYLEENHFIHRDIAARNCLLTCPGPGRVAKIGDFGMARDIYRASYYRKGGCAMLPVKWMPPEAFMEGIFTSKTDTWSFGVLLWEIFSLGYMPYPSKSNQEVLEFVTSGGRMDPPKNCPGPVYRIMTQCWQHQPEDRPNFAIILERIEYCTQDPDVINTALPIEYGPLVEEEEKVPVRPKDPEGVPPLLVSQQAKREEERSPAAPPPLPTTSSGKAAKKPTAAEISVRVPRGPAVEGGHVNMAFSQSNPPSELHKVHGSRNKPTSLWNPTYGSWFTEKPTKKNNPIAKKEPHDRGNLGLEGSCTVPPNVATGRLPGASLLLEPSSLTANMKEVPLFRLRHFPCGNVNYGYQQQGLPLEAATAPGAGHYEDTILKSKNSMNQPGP
How it was run: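 Ba/F3(EML4-ALK) cells, 700 per well, were exposed to 3-fold serial compound dilutions for 72 h at 37° C, 5% CO2, and viability was then read by CTG luminescence.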

EGFR^L858R/T790M/C797S [3] = target: T1, EGFR^L858R/T790M/C797S; assay: Assay of activity of compounds to induce EGFR protein degradation (Alpha counts); assay type: cell-based; set-up: expressed in transfected cells; host or cells: Ba/F3; details: 24 h
Excerpt: (§2) Assay of activity of compounds to induce EGFR^58R/IT790M/C797S and EGFR^Dell9/T790M/C797S protein degradation
(§3) In order to further explain the reason why the compounds of the present disclosure have inhibitory activity on Ba/F3(EGFR^58R/IT790M/C797S) and Ba/F3(EGFR^Dell9/T790M/C797S) cells, representative compounds C176 and C213 were selected to study the mechanism of action of the compounds, and observe their effects on EGFR^58R/IT790M/C797S and EGFR^Dell9/T790M/C797S protein levels.
(§4) Ba/F3(EGFR^58R/IT790M/C797S) and Ba/F3(EGFR^Dell9/T790M/C797S) cells were cultured according to the culture conditions recommended by ATCC, and analyzed by index.
(§5) Complete medium: 1640 medium, 10% FBS, 1× glutamine, 1× penicillin-streptomycin.
(§6) Culture conditions: incubated at 37° C., 95% air, 5% CO2 incubator.
(§7) (2) Compound stock solution: 10 mM stock solution in DMSO, stored at −20° C.
(§8) (3) Preparation of cell suspension:
(§9) The cells in the cell culture bottle were collected, and the cells with viability of >90% can be used in the assay. Cells were seeded in a 96-well plate with 40 μL cells, 1*10^5 cells/well.
(§10) Compound was diluted 3× with DMSO, starting at 1.0 mM (for EGFR^58R/IT790M/C797S assay) and 5 mM (for EGFR^Dell9/T790M/C797S assay), respectively, into 10 concentrations to prepare working solutions.
(§11) (5) Compound was pipetted into the 96-well plate to treat cells in a 37° C., 95% air, 5% CO2 incubator for 24 h.
(§12) 1) 1 μg/mL of EGF activated cells were treated for 10 min;
(§13) 2) After the compound treatment, lysis buffer was added to lyse cells; 10 μL of cell lysate was transferred to a 384-well plate; in addition, control lysate and negative control plus 5 μL of acceptor mix were added to the 384-well plate, and shaken on a shaker for 1-2 min;
(§14) 3) 5 μL of donor mix was added to each well; the 384-well plate was sealed, shaken on a shaker for 1-2 min, left in the dark at room temperature overnight, and read with an enzyme labeling instrument.
(§15) Alpha counts were fitted by logarithmic treatment of compound concentration with Graphpad Prism 8.0.
(§16) Y=Bottom+(Top−Bottom)/(1+10^((LogIC50−X)*HillSlope))
(§17) X: logarithm of compound concentration; Y: Alpha Counts.

[4] = target: Ba/F3(EGFR^Del19/T790M/C797S) cells (Homo sapiens, UniProt P00533, DEL746-750/T790M/C797S, cells depend on it); assay: Assay of activity on Ba/F3 cells (CTG, 72 h); assay type: cell-based; details: read-out: IC50 (nM) Ba/F3 (EGFR^Del19/T790M/C797S)
How it was run: as §1

EGFR^Del19/T790M/C797S = EGFR^Del19/T790M/C797S (Homo sapiens, UniProt P00533, C797S/DEL746-750/T790M); assay: Assay of activity of compounds to induce EGFR protein degradation (Alpha counts); assay type: cell-based; set-up: expressed in transfected cells; host or cells: Ba/F3; details: 24 h
Excerpt: as §2, §3, §4, §5, §6, §7, §8, §9, §10, §11, §12, §13, §14, §15, §16, §17

| SMILES | IC50 (EGFR^L858R/T790M/C797S [1]) | GI50 [2] | GI50 (Ba/F3(EML4-ALK) cells) | DC50 (EGFR^L858R/T790M/C797S [3]; Ba/F3(EGFR^L858R/T790M/C797S) cells, 0.01 nM to 1000 nM, FIG. 1, read-out: DC50 of EGFR^L858R/T790M/C797S protein level) | effect on EGFR^L858R/T790M/C797S protein level (in words) (EGFR^L858R/T790M/C797S [3]; Ba/F3 cells, dose-dependent) | GI50 [4] | DC50 (EGFR^Del19/T790M/C797S; Ba/F3(EGFR^Del19/T790M/C797S) cells, 0.1 nM to 10000 nM, FIG. 2, read-out: DC50 of EGFR^Del19/T790M/C797S protein level) | effect on EGFR^Del19/T790M/C797S protein level (in words) (EGFR^Del19/T790M/C797S; Ba/F3 cells, dose-dependent) |
| --- | --- | --- | --- | --- | --- | --- | --- | --- |
| COc1cc(N2CCC(N3CCN(CCOCC#Cc4cccc5c4CN(C4CCC(=O)NC4=O)C5=O)CC3)CC2)ccc1Nc1ncc(Cl)c(Nc2ccccc2P(C)(C)=O)n1 (stereo not drawn) [Compound C176, 3-(4-(3-(2-(4-(1-(4-((5-chloro-4-((2-(dimethylphosphoryl)phenyl)amino)pyrimidin-2-yl)amino)-3-methoxyphenyl)piperidin-4-yl)piperazin-1-yl)ethoxy)prop-1-yn-1-yl)-1-oxoisoindolin-2-yl)piperidine-2,6-dione] | 1 to 100 nM | 1 to 100 nM | 1 to 100 nM | 31.4 nM | significantly reduces |  |  |  |
| COc1cc(N2CCC3(CCN(CCCCCOc4cccc5c4CN(C4CCC(=O)NC4=O)C5=O)CC3)CC2)c(C)cc1Nc1ncc(Br)c(Nc2ccc3nccnc3c2P(C)(C)=O)n1 (stereo not drawn) [Compound C213, 3-(4-((5-(9-(4-((5-bromo-4-((5-(dimethylphosphoryl)quinoxalin-6-yl)amino)pyrimidin-2-yl)amino)-5-methoxy-2-methylphenyl)-3,9-diazaspiro[5.5]undecan-3-yl)pentyl)oxy)-1-oxoisoindolin-2-yl)piperidine-2,6-dione] |  | 1 to 100 nM |  |  |  | 1 to 100 nM | 11.3 nM | significantly reduces |
